Source: ChEMBL document CHEMBL4513148, “CO-ADD screening of Stellenbosch University (South Africa) compounds”
Values after ≈ are worked out from the molar mass of the structure shown.

Experiments:
Acinetobacter baumannii = assay: microbe, parasite or virus in culture; conditions: ATCC 19606, 18 h, ASSAY_TEST Inhibition of Bacterial Growth, detection method Absorption (OD600), MEDIA CAMHB, plate type 384well, NBS, CORNING #3640
Description: Antibacterial activity against Acinetobacter baumannii ATCC 19606 (CO-ADD:GN_034); MIC in CAMBH media using NBS plates, by OD600

Candida albicans = assay: microbe, parasite or virus in culture; conditions: ATCC 90028, ASSAY_TEST Inhibition of Fungal Growth, detection method Absorption (OD530), plate type 384well, NBS, CORNING #3640
Description: Antifungal activity against Candida albicans ATCC 90028 (CO-ADD:FG_001); MIC in YNB media using NBS plates, by OD630

Pseudomonas aeruginosa = assay: microbe, parasite or virus in culture; conditions: ATCC 27853, 18 h, ASSAY_TEST Inhibition of Bacterial Growth, detection method Absorption (OD600), MEDIA CAMHB, plate type 384well, NBS, CORNING #3640
Description: Antibacterial activity against Pseudomonas aeruginosa ATCC 27853 (CO-ADD:GN_042); MIC in CAMBH media using NBS plates, by OD(600)

Klebsiella pneumoniae = assay: microbe, parasite or virus in culture; conditions: ATCC 700603, 18 h, ASSAY_TEST Inhibition of Bacterial Growth, detection method Absorption (OD600), MEDIA CAMHB, plate type 384well, NBS, CORNING #3640
Description: Antibacterial activity against Klebsiella pneumoniae MDR ATCC 70063 (CO-ADD:GN_003); MIC in CAMBH media using NBS plates, by OD(600)

HEK293 = assay: cells; format: functional; conditions: Homo sapiens, ATCC CRL1573, HEK293; ASSAY_TEST Inhibition of Cell Viability; detection method Resazurin; Fluorescence (ex560/em590); MEDIA DMEM with 10% FBS; plate type 384well; TC; CORNING #3712; time 18 hr
Staphylococcus aureus = assay: microbe, parasite or virus in culture; conditions: ATCC 43300, 18 h, ASSAY_TEST Inhibition of Bacterial Growth, detection method Absorption (OD600), MEDIA CAMHB, plate type 384well, NBS, CORNING #3640
Description: Antibacterial activity against Staphylococcus aureus MRSA ATCC 43300 (CO-ADD:GP_020); MIC in CAMBH media, using NBS plates, by OD(600)

Escherichia coli = assay: microbe, parasite or virus in culture; conditions: ATCC 25922, 18 h, ASSAY_TEST Inhibition of Bacterial Growth, detection method Absorption (OD600), MEDIA CAMHB, plate type 384well, NBS, CORNING #3640
Description: Antibacterial activity against Escherichia coli ATCC 25922 (CO-ADD:GN_001); MIC in CAMBH media using NBS plates, by OD(600)

Description for Cryptococcus neoformans: Antifungal activity against Cryptococcus neoformans H99 ATCC 208821 (CO-ADD:FG_002); MIC in YNB media using NBS plates, by Resazurin OD(600-570)

| Compound | MIC (Cryptococcus neoformans) | MIC (Acinetobacter baumannii) | MIC (Candida albicans) | MIC (Pseudomonas aeruginosa) | MIC (Klebsiella pneumoniae) | CC50 (HEK293) | MIC (Staphylococcus aureus) | MIC (Escherichia coli) |
| --- | --- | --- | --- | --- | --- | --- | --- | --- |
| CCCCCCCNC(=O)CCNC(=O)C(O)C(C)(C)CN (stereo not given) | > 32 µg/mL | > 32 µg/mL | > 32 µg/mL | > 32 µg/mL | > 32 µg/mL | > 32 µg/mL | > 32 µg/mL | > 32 µg/mL |
| CCCCCCCNC(=O)C(C)CNC(=O)[C@H](O)C(C)(C)CO (stereo not given in full) | > 32 µg/mL | > 32 µg/mL | > 32 µg/mL | > 32 µg/mL | > 32 µg/mL | > 32 µg/mL | > 32 µg/mL | > 32 µg/mL |
| CCCCCCCNC(=O)/C=C/NC(=O)[C@H](O)C(C)(C)CO | > 32 µg/mL | > 32 µg/mL | > 32 µg/mL | > 32 µg/mL | > 32 µg/mL | > 32 µg/mL | > 32 µg/mL | > 32 µg/mL |
| CN(CCc1ccccc1)C(=O)CCNC(=O)[C@H](O)C(C)(C)CO | > 32 µg/mL | > 32 µg/mL | > 32 µg/mL | > 32 µg/mL | > 32 µg/mL | > 32 µg/mL | > 32 µg/mL | > 32 µg/mL |
| CCCCCCCNC(=O)CCNC(=O)[C@H](O)C(C)(C)COP(=O)(O)O | > 32 µg/mL | > 32 µg/mL | > 32 µg/mL | > 32 µg/mL | > 32 µg/mL | > 32 µg/mL | > 32 µg/mL | > 32 µg/mL |
| CCCCCCCNC(=O)CC(C)NC(=O)[C@H](O)C(C)(C)CO (stereo not given in full) | > 32 µg/mL | > 32 µg/mL | > 32 µg/mL | > 32 µg/mL | > 32 µg/mL | > 32 µg/mL | > 32 µg/mL | > 32 µg/mL |
| CC(CNC(=O)[C@H](O)C(C)(C)CO)C(=O)NCCc1ccccc1 (stereo not given in full) | > 32 µg/mL | > 32 µg/mL | > 32 µg/mL | > 32 µg/mL | > 32 µg/mL | > 32 µg/mL | > 32 µg/mL | > 32 µg/mL |
| CC(C)(CO)[C@@H](O)C(=O)NCCC(=O)NCCc1ccccc1 | > 32 µg/mL | > 32 µg/mL | > 32 µg/mL | > 32 µg/mL | > 32 µg/mL | > 32 µg/mL | 32 µg/mL (≈ 99.3 µM) | > 32 µg/mL |
| CCCCCCCN(C)C(=O)CCNC(=O)[C@H](O)C(C)(C)CO | > 32 µg/mL | > 32 µg/mL | > 32 µg/mL | > 32 µg/mL | > 32 µg/mL | > 32 µg/mL | > 32 µg/mL | > 32 µg/mL |
| CCCCCCCNC(=O)CCNC(=O)[C@H](O)C(C)(C)CO | > 32 µg/mL | > 32 µg/mL | > 32 µg/mL | > 32 µg/mL | > 32 µg/mL | > 32 µg/mL | 0.5 µg/mL (≈ 1.58 µM) | > 32 µg/mL |
